The target in this experiment is native CB1 receptors (Rattus norvegicus, UniProt P20272). The experiment can be described thus: CB1 receptor rat binding assay ([3H]SR141716A, rat brain membranes). The following applies: rat brain membranes, [3H]SR141716A; for Ki: read-out: Binding rat pKi (converted).

Each structure is given as a SMILES string.

Chain of native CB1 receptors (P20272 whole entry): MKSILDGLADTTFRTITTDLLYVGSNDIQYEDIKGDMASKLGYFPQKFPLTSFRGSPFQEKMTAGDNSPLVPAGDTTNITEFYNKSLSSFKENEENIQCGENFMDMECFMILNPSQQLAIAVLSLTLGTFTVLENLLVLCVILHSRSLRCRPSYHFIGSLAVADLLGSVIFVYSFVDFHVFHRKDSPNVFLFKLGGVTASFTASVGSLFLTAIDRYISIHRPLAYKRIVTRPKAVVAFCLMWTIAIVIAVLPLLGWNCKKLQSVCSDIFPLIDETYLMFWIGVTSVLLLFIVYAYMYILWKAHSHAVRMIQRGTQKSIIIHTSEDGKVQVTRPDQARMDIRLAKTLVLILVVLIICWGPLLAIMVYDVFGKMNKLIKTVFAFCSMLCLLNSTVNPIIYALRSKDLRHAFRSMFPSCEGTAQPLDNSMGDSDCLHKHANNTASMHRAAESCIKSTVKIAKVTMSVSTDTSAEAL

With `O=C(NCc1cccs1)c1ccc2c(c1)N=C(c1ccccc1F)c1ccccc1S2` [drawing 1227], the “Binding rat Inh %” value came to 94% and the Ki is 15.8 nM. With `O=C(NCCc1ccc(Cl)cc1)c1ccc2c(c1)N=C(c1ccccc1F)c1ccccc1S2` [drawing 1228], the Ki is 15.8 nM.

With `CC(C)CNC(=O)c1ccc2c(c1)N=C(c1ccc(Cl)cn1)c1ccc(F)cc1S2` [drawing 1229], the “Binding rat Inh %” value amounted to 87% and the Ki is 15.8 nM. With `CCCCNC(=O)c1ccc2c(c1)N=C(c1ccc(Cl)cn1)c1cc(F)ccc1S2` [drawing 1230], the “Binding rat Inh %” value is 83% and the Ki was 15.8 nM. For `Cc1ccc(CNC(=O)c2ccc3c(c2)N=C(c2cccc(Cl)c2)c2ccccc2S3)o1` [drawing 1231], the “Binding rat Inh %” value is given as 85% and the Ki was 0.631 nM. The corresponding values for `Cc1csc(CNC(=O)c2ccc3c(c2)N=C(c2ccc(Cl)s2)c2ccccc2S3)c1` [drawing 1232] are 90% and 0.794 nM. In the case of `O=C(NCCCC(F)(F)F)c1ccc2c(c1)N=C(c1ccsc1)c1ccccc1S2` [drawing 1233], the “Binding rat Inh %” value is 97% and the Ki is 0.794 nM. As to `Cc1csc(CNC(=O)c2ccc3c(c2)N=C(c2cccc(F)c2)c2ccccc2S3)c1` [drawing 1234], the “Binding rat Inh %” value turned out to be 89% and the Ki is 0.794 nM. As to `CCCCNC(=O)c1ccc2c(c1)N=C(c1cccc(Cl)c1)c1cc(Cl)ccc1S2` [drawing 1235], the “Binding rat Inh %” value is on record as 89% and the Ki is 15.8 nM. In the case of `CCCNC(=O)c1ccc2c(c1)N=C(c1ccc(Cl)s1)c1ccccc1S2` [drawing 1236], the “Binding rat Inh %” value came to 89% and the Ki was 15.8 nM.

As for `COc1cccc(C2=Nc3cc(C(=O)NCCC(F)(F)F)ccc3Sc3ccccc32)n1` [drawing 1237], the “Binding rat Inh %” value was determined as 91% and the Ki was 15.8 nM.

As for `CCCCNC(=O)c1ccc2c(c1)N=C(c1ccc(F)cc1)c1ccccc1S2` [drawing 1238], the Ki was 15.8 nM.

Turning to `Cc1ccc(CNC(=O)c2ccc3c(c2)N=C(c2ccc(F)cc2)c2ccccc2S3)o1` [drawing 1239], the “Binding rat Inh %” value stood at 108% and the Ki was 0.794 nM. For the compound `CC(C)CCNC(=O)c1ccc2c(c1)N=C(c1cccc(F)c1)c1ccccc1S2` [drawing 1240], the “Binding rat Inh %” value was determined as 99% and the Ki is 0.794 nM. Take `O=C(NC1CCC(F)(F)CC1)c1ccc2c(c1)N=C(c1cccc(Cl)c1)c1ccccc1S2` [drawing 1242]: the “Binding rat Inh %” value is 79% and the Ki was 1 nM. In the case of `CCCCNC(=O)c1cc2c(cc1C)Sc1ccccc1C(c1ccc(Cl)cc1)=N2` [drawing 1243], the “Binding rat Inh %” value is listed as 119% and the Ki was 15.8 nM. Regarding `CCCCNC(=O)c1ccc2c(c1)N=C(c1sccc1C)c1ccccc1S2` [drawing 1244], the “Binding rat Inh %” value was 103% and the Ki is 15.8 nM. Turning to `CCN(CCNC(=O)c1ccc2c(c1)N=C(c1ccccc1)c1ccccc1S2)c1ccccc1` [drawing 1245], the Ki was 15.8 nM. For `CCCCNC(=O)c1ccc2c(c1)N=C(c1ccc(F)cn1)c1ccccc1S2` [drawing 1246], the “Binding rat Inh %” value is listed as 87% and the Ki is 15.8 nM. For `CCCCNC(=O)c1ccc2c(c1)N=C(c1ccc(Cl)cc1)c1sccc1S2` [drawing 1247], the “Binding rat Inh %” value is given as 97% and the Ki was 1 nM. Take `O=C(NCCCC(F)(F)F)c1ccc2c(c1)N=C(c1cccc(F)c1)c1ccccc1S2` [drawing 1248]: the “Binding rat Inh %” value was 83% and the Ki is 1 nM. Turning to `O=C(NC1CCC(F)(F)CC1)c1ccc2c(c1)N=C(c1cccc(F)c1)c1ccccc1S2` [drawing 1249], the “Binding rat Inh %” value is 112% and the Ki was 1 nM. On to `O=C(NCCC(F)(F)F)c1ccc2c(c1)N=C(c1cccc(Cl)c1)c1ccccc1S2` [drawing 1250], for which the “Binding rat Inh %” value turned out to be 88% and the Ki was 1 nM. Consider `Cc1ccsc1C1=Nc2cc(C(=O)NCCC(C)C)ccc2Sc2ccccc21` [drawing 1251], for which the “Binding rat Inh %” value is 88% and the Ki was 15.8 nM. Regarding `O=C(NCc1ccco1)c1ccc2c(c1)N=C(c1cccc(F)c1)c1ccccc1S2` [drawing 1252], the “Binding rat Inh %” value turned out to be 93% and the Ki was 15.8 nM. Take `O=C(NCc1ccccc1)c1ccc2c(c1)N=C(N1CCCCC1)c1ccccc1S2` [drawing 1253]: the Ki is 15.8 nM. Consider `CC(C)CNC(=O)c1ccc2c(c1)N=C(c1ccc(F)cn1)c1ccccc1S2` [drawing 1254], for which the “Binding rat Inh %” value came out at 97% and the Ki was 15.8 nM.

As to `Cc1csc(CNC(=O)c2ccc3c(c2)N=C(c2sccc2C)c2ccccc2S3)c1` [drawing 1255], the “Binding rat Inh %” value is 93% and the Ki was 1 nM.

As to `O=C(NCc1cccs1)c1ccc2c(c1)N=C(c1ccc(Cl)s1)c1ccccc1S2` [drawing 1256], the “Binding rat Inh %” value turned out to be 98% and the Ki is 1.26 nM. For the compound `O=C(NCc1cccc(Cl)c1)c1ccc2c(c1)N=C(c1ccc(Cl)cc1)c1ccccc1S2` [drawing 1257], the Ki was 1.26 nM. Take `O=C(NC1CCC(F)(F)CC1)c1ccc2c(c1)N=C(c1ccc(F)cc1)c1ccccc1S2` [drawing 1258]: the “Binding rat Inh %” value is given as 94% and the Ki is 1.26 nM. On to `CCCNC(=O)c1ccc2c(c1)N=C(c1ccc(Br)cc1)c1ccccc1S2` [drawing 1259], for which the “Binding rat Inh %” value stood at 65% and the Ki is 15.8 nM. As to `O=C(NCc1cccnc1)c1ccc2c(c1)N=C(c1ccc(Cl)cc1)c1ccccc1S2` [drawing 1260], the “Binding rat Inh %” value was found to be 76% and the Ki is 15.8 nM. Take `C[C@@H]1CCC[C@H](C)N1NC(=O)c1ccc2c(c1)N=C(c1cccc(F)c1)c1ccccc1S2` [drawing 1261]: the “Binding rat Inh %” value came to 91% and the Ki was 20 nM. In the same order, the values of `CCCNC(=O)c1ccc2c(c1)N=C(c1ccc(F)cc1)c1ccccc1S2` [drawing 1262] are 87% and 20 nM. For `Cc1csc(CNC(=O)c2ccc3c(c2)N=C(c2cccc(C)n2)c2ccccc2S3)c1` [drawing 1263], the “Binding rat Inh %” value amounted to 94% and the Ki is 1.58 nM. As for `O=C(NCc1cccc(Cl)c1)c1ccc2c(c1)N=C(c1cccc(Cl)c1)c1ccccc1S2` [drawing 1264], the Ki is 1.58 nM. Regarding `Cc1ccsc1C1=Nc2cc(C(=O)NC3CCC(F)(F)CC3)ccc2Sc2ccccc21` [drawing 1265], the “Binding rat Inh %” value stood at 93% and the Ki was 1.58 nM. With `O=C(NCc1cccc(Cl)c1)c1ccc2c(c1)N=C(c1ccc(F)cc1)c1ccccc1S2` [drawing 1266], the Ki was 1.58 nM.

For the compound `CCCCNC(=O)c1ccc2c(c1)N=C(c1ccc(Cl)s1)c1ccc(F)cc1S2` [drawing 1267], the “Binding rat Inh %” value is recorded as 93% and the Ki is 20 nM. Consider `O=C(NC1CCCC1)c1ccc2c(c1)N=C(c1ccc(F)cc1)c1ccccc1S2` [drawing 1268], for which the “Binding rat Inh %” value is given as 84% and the Ki is 20 nM. The corresponding values for `CC(C)NC(=O)c1ccc2c(c1)N=C(c1cccc(Cl)c1)c1ccccc1S2` [drawing 1269] are 83% and 20 nM. Turning to `O=C(NCc1ccccn1)c1ccc2c(c1)N=C(c1ccc(Cl)cc1)c1ccccc1S2` [drawing 1270], the “Binding rat Inh %” value was found to be 112% and the Ki was 20 nM. Consider `O=C(NCc1cccs1)c1ccc2c(c1)N=C(c1cccc(Cl)c1)c1ccccc1S2` [drawing 1272], for which the “Binding rat Inh %” value was determined as 109% and the Ki was 2 nM. In the same order, the values of `O=C(NCCC(F)(F)F)c1ccc2c(c1)N=C(c1ccc(Cl)s1)c1ccccc1S2` [drawing 1273] are 85% and 2 nM.

Regarding `CCCCNC(=O)c1ccc2c(c1)N=C(c1ccc(Cl)c(F)c1)c1ccccc1S2` [drawing 1274], the “Binding rat Inh %” value amounted to 96% and the Ki is 2 nM. Consider `O=C(NCc1ccccc1Br)c1ccc2c(c1)N=C(N1CCCCC1)c1ccccc1S2` [drawing 1275], for which the Ki is 20 nM. Turning to `CCCNC(=O)c1ccc2c(c1)N=C(c1ccc(Cl)cc1F)c1ccccc1S2` [drawing 1276], the “Binding rat Inh %” value was 98% and the Ki is 20 nM. `Cc1ccsc1C1=Nc2cc(C(=O)NCc3ccco3)ccc2Sc2ccccc21` [drawing 1277]: the “Binding rat Inh %” value turned out to be 85% and the Ki is 20 nM. In the case of `O=C(NCc1cccnc1)c1ccc2c(c1)N=C(c1cccc(Br)c1)c1ccccc1S2` [drawing 1278], the “Binding rat Inh %” value was determined as 80% and the Ki is 20 nM.

For the compound `O=C(NCc1cccs1)c1ccc2c(c1)N=C(c1ccc(Cl)cc1)c1ccccc1S2` [drawing 1279], the “Binding rat Inh %” value came to 94% and the Ki was 2 nM. `O=C(NCCc1ccc(Cl)cc1)c1ccc2c(c1)N=C(C1CCCCC1)c1ccccc1S2` [drawing 1280]: the Ki is 2 nM. For the compound `O=C(NCCc1ccc(Cl)cc1)c1ccc2c(c1)N=C(c1cccc(Cl)c1)c1ccccc1S2` [drawing 1281], the Ki is 2 nM.

As to `COc1ccc(C2=Nc3cc(C(=O)NC4CCCCC4)ccc3Sc3ccccc32)cc1` [drawing 1282], the “Binding rat Inh %” value is reported as 91% and the Ki is 2 nM. On to `O=C(NCCc1cccc(Cl)c1)c1ccc2c(c1)N=C(c1ccc(Cl)cc1)c1ccccc1S2` [drawing 1283], for which the Ki was 20 nM. As to `CCCC1=Nc2cc(C(=O)NC3CCCC(C)C3C)ccc2Sc2ccccc21` (centres unmarked) [drawing 1284], the Ki was 20 nM.

With `CCCC1=Nc2cc(C(=O)NCCc3ccc(Cl)cc3)ccc2Sc2ccccc21` [drawing 1285], the Ki is 20 nM.

For the compound `CCCNC(=O)c1ccc2c(c1)N=C(c1cccc(F)c1)c1ccccc1S2` [drawing 1286], the “Binding rat Inh %” value turned out to be 84% and the Ki is 20 nM. `O=C(NCc1ccc(F)cc1)c1ccc2c(c1)N=C(c1ccc(Cl)cc1)c1ccccc1S2` [drawing 1287]: the Ki is 2 nM.

(Values after patent publication US20080090805A1, “CB-1 MODULATING COMPOUNDS AND THEIR USE” (ACADIA PHARMACEUTICALS INC., priority 2005, published 2008).)
